SMILES strings stand for the structures.

2 compounds from patent US6469162B1, “Compounds with chelation affinity and selectivity for first transition series elements: use in medical therapy and diagnosis” (Concat, Ltd., priority 1995, dated 2002) can be followed below.

The nature of data set [1]: Acute in vivo toxicity, single intravenous dose to mice. The note with it: 4.0 mM/kg single intravenous dose, survival for over 14 days. As for the experimental part: This example illustrates the low in vivo toxicity of a representative ligand administer intravenously to mice.
This in vivo LD50 toxicity dose results in an instantaneous in vivo concentration which is orders of magnitude greater than the dose of this agent which inhibits mammalian cell replication in vitro (0.009 mM/L).

Data set [2] has as its system mature, nonreplicating cultures of HFF (human foreskin fibroblasts). The data set is described as follows: Toxicity toward nonproliferating mammalian cells in vitro. The format is cell-based. Particulars: 0.3 mM, nonreplicating HFF in maintenance media, five-day period of observation.
Data set [3] is described as follows: Subacute toxicity, repeated intravenous doses to rats. The format is in vivo, Sprague Dawley rats. The note with it: 0.05 millimoles per kg i.v. on 10 days. The source says: Ten male Sprague Dawley rats 29 days old and weighing between 73.4 and 87.8 grams at the beginning of the experiment were randomized, employing the block stratification method, into two groups consisting of five rats each. On each of days 1, 2, 3, 6, 7, 8, 9, 10, 13 and 14 of the experiment one set of rats received an intravenous dose of N,N′,N″-tris(dihydroxyphosphorylmethyl)-1,4,7-triazacyclononane (Example 1 C in U.S. Pat. No. 5,236,695) equal to 0.05 millimoles per kg of initial body weight (experimental group) while the other group received an equivalent volume of normal saline solution. The weights of the animals were recorded three times per week and the animals were sacrificed on the 28th day, major organs removed and weighed and tissues removed for microscopic examination.

Take `O=P(O)(O)CN1CCN(CP(=O)(O)O)CCN(CP(=O)(O)O)CC1` [N,N′,N″-tris-(dihydroxyphosphorylmethyl)-1,4,7-triazacyclononane]: in data set [1], the mice surviving entry was “Over 50%”.
Turning to `O=P(O)(O)CN1CCN(CP(=O)(O)O)CCN(CP(=O)(O)O)CC1` [N,N′,N″-tris(dihydroxyphosphorylmethyl)-1,4,7-triazacyclononane], the “effect on resting cells” value in data set [2] was “no effect”. For the same compound, in data set [3] (injection period and two-week post-injection period), the “weight or rate of weight gain, experimental vs control group” value was “no statistically significant difference”. For the same compound, the “microscopic examination of tissues, experimental vs control group” value in data set [3] (necropsy on the 28th day) is recorded as “no differences”. In addition, the “weights of major organs, experimental vs control group” value in data set [3] (sacrificed on the 28th day) is recorded as “no differences”.
